Results reported in publication PMC6112750 (Oncotarget, 2018).

Target: T1, SUV39H2 (Homo sapiens, UniProt Q9H5I1)
T1 construct: N-terminal GST fused SUV39H2
Assay: radiometric SPA methyltransferase assay with biotin-H3 ([…]-21) peptide and [3H]-SAM
Assay type: biochemical

T1 sequence (Q9H5I1 whole entry, the tested form may be a part): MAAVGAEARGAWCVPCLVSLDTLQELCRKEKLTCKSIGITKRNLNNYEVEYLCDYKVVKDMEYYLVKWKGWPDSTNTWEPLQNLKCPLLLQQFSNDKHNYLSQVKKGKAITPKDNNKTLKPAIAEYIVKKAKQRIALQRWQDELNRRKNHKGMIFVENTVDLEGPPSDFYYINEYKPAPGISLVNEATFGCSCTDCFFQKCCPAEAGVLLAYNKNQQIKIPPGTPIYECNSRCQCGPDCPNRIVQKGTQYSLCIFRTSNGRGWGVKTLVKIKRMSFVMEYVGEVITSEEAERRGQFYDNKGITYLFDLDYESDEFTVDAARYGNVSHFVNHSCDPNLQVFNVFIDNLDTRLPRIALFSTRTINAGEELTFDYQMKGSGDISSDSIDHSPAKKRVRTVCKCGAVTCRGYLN

IC50: 22.2 nM
SMILES: COc1cc(OC)c(-c2cn3ccc(N[C@H]4CC[C@@H](NCc5ccc([N+](=O)[O-])cc5)CC4)cc3n2)cc1Cl [OTS193320, (1s,4s)-N^1-(2-(5-chloro-2,4-dimethoxyphenyl)imidazo[1,2-a]pyridin-7-yl)-N^4-(4-nitrobenzyl)cyclohexane-1,4-diamine]
